Measurements published in paper PMC8474115 (Journal of Medicinal Chemistry, 2021).
Where a name gives a salt, the structure may show the parent alone. Read-outs that look alike come from different tables or passages of the source.

Columns and labels:
Melanocortin MC1 = target: T1, Melanocortin MC1 (Homo sapiens, UniProt Q01726); test: Eurofins SafetyScreen panel; type: binding
T1 construct: purchased Eurofins (Panlabs) SafetyScreen87 Panel

Muscarinic M1 = target: T2, Muscarinic M1 (Homo sapiens, UniProt P11229); test: Eurofins SafetyScreen panel; type: binding
T2 construct: Eurofins (contract screening, SafetyScreen panel) PP223
T2 sequence (P11229 1-460): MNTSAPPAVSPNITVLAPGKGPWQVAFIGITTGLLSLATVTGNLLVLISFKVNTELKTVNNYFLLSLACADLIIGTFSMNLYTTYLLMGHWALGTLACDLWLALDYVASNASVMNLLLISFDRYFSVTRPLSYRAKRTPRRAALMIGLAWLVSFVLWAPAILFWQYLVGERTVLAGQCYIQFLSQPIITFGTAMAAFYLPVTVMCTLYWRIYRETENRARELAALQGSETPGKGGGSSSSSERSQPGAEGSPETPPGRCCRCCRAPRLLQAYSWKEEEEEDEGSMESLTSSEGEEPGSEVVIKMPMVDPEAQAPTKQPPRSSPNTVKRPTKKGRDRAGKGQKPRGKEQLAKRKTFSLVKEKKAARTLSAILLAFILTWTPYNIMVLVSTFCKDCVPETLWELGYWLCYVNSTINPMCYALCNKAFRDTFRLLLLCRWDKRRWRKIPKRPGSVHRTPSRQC

COX-2 = target: T3, COX-2 (Homo sapiens, UniProt P35354); test: Eurofins SafetyScreen panel; type: biochemical
T3 construct: Eurofins

[1] = target: T4, Leukotriene, Cysteinyl CysLT1 (Homo sapiens, UniProt Q9Y271); test: Eurofins SafetyScreen panel; type: binding
T4 construct: purchased Eurofins (Panlabs) SafetyScreen87 Panel

CYP3A4 = CYP3A4 (Homo sapiens, UniProt P08684); test: Cytochrome P450 inhibition (Eurofins)
Opiate σ1 (OP1, DOP) = target: T5, Opiate σ1 (OP1, DOP) (Homo sapiens, UniProt P41143); test: Eurofins SafetyScreen panel; type: binding; details: read-out: %inh
T5 construct: Eurofins (contract assay)

Dopamine D1 = target: T6, Dopamine D1 (Homo sapiens, UniProt P21728); test: Eurofins SafetyScreen panel; type: binding
T6 construct: purchased Eurofins (Panlabs) SafetyScreen87 Panel

Dopamine D2S = target: T7, Dopamine D2S (Homo sapiens, UniProt P14416); test: Eurofins SafetyScreen panel; type: binding
T7 construct: purchased Eurofins (Panlabs) SafetyScreen87 Panel

Potassium Channel [hERG] = Potassium Channel [hERG] (Homo sapiens, UniProt Q12809); test: Eurofins SafetyScreen panel
[2] = target: T8, Protein Tyr Kinase, Insulin receptor (Homo sapiens, UniProt P06213); test: Eurofins SafetyScreen panel; type: biochemical
T8 construct: Eurofins (contract screening, SafetyScreen panel) PP223

Serotonin 5-HT1B = target: T9, Serotonin 5-HT1B (Homo sapiens, UniProt P28222); test: Eurofins SafetyScreen panel; type: binding
T9 construct: Eurofins (contract assay)

Muscarinic M3 = target: T10, Muscarinic M3 (Homo sapiens, UniProt P20309); test: Eurofins SafetyScreen panel; type: binding
T10 construct: Eurofins (contract screening, SafetyScreen panel) PP223

CYP2C19 = CYP2C19 (Homo sapiens, UniProt P33261); test: Cytochrome P450 inhibition (Eurofins)
Serotonin 5-HT1A = target: T11, Serotonin 5-HT1A (Homo sapiens, UniProt P08908); test: Eurofins SafetyScreen panel; type: binding
T11 construct: Eurofins (contract assay)
T11 sequence (P08908 1-422): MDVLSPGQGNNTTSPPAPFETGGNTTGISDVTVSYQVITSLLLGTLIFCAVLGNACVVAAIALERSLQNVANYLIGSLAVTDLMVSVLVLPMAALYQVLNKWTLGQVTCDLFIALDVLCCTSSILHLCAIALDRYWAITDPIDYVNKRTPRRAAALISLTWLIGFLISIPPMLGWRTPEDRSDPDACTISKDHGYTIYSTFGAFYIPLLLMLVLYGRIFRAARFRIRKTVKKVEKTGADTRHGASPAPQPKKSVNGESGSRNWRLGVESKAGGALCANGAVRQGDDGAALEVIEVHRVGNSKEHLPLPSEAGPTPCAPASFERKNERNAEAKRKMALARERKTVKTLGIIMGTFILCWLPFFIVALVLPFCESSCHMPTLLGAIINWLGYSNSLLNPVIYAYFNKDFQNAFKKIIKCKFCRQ

[3] = target: Ca Channel L-Type, Benzothiazepine (Rattus norvegicus, UniProt P22002); test: Eurofins SafetyScreen panel; type: binding
hD2L = hD2L (Homo sapiens, UniProt P14416); details: D2R
Method: For membrane preparation, cells after reaching 90% confluence, were washed with phosphate-buffered saline (PBS), and pelleted by centrifugation (200 × g) in PBS containing 0.1 mM EDTA and 1 mM dithiothreitol.
The total reaction volume was 200 μL. The incubation process was terminated by filtration through UniFilter-96 (PerkinElmer) plates with the FilterMate Universal Harvester (PerkinElmer, #C961962), and radioactivity retained on the filters was quantified on a MicroBeta counter for radiometric detection (PerkinElmer). […] To evaluate the level of nonspecific signal 10 μM of 5-HT for 5-HT1AR and 5-HT7R, 20 μM of mianserin for 5-HT2AR, 10 μM of methiothepine for 5-HT6R and 10 μM of haloperidol for D2LR were used. […] The acquired results were presented as the mean of at least two independent experiments.

Neuropeptide Y Y1 = target: T12, Neuropeptide Y Y1 (Homo sapiens, UniProt P25929); test: Eurofins SafetyScreen panel; type: binding
T12 construct: Eurofins (contract screening, SafetyScreen panel) PP223

Glutamate NMDA, Glycine = Glutamate NMDA, Glycine (Rattus norvegicus, UniProt P35439); test: Eurofins SafetyScreen panel; type: binding
Melanocortin MC4 = target: T13, Melanocortin MC4 (Homo sapiens, UniProt P32245); test: Eurofins SafetyScreen panel; type: binding
T13 construct: purchased Eurofins (Panlabs) SafetyScreen87 Panel

Vasopressin V1A = target: T14, Vasopressin V1A (Homo sapiens, UniProt P37288); test: Eurofins SafetyScreen panel; type: binding
T14 construct: Eurofins (contract screening, SafetyScreen panel) PP223

Cathepsin G = target: T15, Cathepsin G (Homo sapiens, UniProt P08311); test: Eurofins SafetyScreen panel; type: biochemical
T15 construct: Eurofins

PPARγ = target: T16, PPARγ (Homo sapiens, UniProt P37231); test: Eurofins SafetyScreen panel; type: binding
T16 construct: Eurofins (contract assay)

Sigma σ1 = target: T17, Sigma σ1 (Homo sapiens, UniProt Q99720); test: Eurofins SafetyScreen panel; type: binding
T17 construct: Eurofins (contract assay) 278110

[4] = read-out: %inh, 10 μM, additional batch

Ca Channel L-Type, Benzothiazepine, sequence (P22002 whole entry): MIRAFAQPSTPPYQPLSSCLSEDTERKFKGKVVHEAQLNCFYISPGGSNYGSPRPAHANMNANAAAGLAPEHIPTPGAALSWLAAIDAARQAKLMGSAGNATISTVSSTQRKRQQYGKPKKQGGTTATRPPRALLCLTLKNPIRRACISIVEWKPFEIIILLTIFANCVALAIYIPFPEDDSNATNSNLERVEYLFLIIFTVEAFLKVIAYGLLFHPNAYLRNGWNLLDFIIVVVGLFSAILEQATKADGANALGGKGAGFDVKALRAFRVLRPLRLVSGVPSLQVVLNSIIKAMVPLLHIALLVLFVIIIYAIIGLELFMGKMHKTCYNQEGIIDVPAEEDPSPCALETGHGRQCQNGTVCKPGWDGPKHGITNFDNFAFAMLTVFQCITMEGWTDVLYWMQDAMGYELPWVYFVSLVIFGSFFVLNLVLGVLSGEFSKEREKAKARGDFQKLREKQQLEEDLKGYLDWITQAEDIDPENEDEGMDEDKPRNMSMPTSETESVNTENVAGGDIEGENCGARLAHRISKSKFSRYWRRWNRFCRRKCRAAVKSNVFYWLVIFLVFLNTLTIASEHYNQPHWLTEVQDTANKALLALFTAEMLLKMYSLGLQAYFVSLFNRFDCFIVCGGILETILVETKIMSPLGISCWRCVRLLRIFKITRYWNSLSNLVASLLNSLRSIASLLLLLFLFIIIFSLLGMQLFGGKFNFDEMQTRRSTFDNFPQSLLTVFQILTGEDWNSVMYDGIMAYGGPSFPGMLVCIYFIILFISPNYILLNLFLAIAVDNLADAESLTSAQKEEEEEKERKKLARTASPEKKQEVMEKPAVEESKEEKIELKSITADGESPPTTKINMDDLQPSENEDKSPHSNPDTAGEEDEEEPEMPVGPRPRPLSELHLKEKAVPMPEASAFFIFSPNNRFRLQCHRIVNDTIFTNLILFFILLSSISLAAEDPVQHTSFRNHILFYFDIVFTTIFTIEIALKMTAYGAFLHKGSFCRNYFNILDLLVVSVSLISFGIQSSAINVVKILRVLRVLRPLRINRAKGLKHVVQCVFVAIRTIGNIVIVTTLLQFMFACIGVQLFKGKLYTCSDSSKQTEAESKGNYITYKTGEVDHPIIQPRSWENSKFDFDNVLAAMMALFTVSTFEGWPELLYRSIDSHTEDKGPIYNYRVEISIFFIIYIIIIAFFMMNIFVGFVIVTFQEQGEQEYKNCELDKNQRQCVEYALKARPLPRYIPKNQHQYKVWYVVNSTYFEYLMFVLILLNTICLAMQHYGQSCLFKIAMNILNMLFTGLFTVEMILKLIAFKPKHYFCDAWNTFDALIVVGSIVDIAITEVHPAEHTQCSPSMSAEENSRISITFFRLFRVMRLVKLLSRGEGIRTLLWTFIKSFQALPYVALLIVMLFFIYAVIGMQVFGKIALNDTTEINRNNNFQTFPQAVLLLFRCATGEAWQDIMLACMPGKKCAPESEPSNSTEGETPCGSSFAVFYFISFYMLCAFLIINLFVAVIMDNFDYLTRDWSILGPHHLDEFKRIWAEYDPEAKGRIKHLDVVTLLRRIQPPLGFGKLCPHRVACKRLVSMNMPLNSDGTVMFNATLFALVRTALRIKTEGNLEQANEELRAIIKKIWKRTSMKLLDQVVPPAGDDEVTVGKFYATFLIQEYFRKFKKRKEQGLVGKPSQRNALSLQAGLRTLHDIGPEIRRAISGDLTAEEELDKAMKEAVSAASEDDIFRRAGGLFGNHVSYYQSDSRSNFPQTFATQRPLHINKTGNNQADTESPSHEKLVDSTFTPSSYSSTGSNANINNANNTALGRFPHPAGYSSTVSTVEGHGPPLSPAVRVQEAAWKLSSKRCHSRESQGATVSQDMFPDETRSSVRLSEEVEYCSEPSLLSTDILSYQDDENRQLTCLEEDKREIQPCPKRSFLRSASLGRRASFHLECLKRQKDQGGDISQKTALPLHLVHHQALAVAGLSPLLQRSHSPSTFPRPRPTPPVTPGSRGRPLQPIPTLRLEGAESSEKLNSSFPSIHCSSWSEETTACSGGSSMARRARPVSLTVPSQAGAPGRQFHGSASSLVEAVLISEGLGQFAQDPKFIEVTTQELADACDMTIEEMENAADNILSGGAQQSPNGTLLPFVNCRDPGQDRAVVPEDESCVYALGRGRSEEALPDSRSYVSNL
T9 sequence (P28222 whole entry): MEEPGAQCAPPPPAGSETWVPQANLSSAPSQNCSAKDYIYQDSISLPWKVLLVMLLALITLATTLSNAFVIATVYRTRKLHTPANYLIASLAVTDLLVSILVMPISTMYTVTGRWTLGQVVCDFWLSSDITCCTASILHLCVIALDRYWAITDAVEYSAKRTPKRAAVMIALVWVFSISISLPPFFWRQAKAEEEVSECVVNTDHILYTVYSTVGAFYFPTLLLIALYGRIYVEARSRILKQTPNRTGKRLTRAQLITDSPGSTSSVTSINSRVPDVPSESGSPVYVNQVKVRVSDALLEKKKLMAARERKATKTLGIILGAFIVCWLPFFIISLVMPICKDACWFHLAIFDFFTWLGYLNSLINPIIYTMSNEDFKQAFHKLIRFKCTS
T17 sequence (Q99720 whole entry): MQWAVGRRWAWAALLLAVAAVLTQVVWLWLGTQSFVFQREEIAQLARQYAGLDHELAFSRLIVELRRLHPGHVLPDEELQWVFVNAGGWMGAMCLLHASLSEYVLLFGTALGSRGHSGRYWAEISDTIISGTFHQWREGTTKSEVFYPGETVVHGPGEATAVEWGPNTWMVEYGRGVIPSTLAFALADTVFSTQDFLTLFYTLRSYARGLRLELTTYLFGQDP
Potassium Channel [hERG], sequence (Q12809 whole entry): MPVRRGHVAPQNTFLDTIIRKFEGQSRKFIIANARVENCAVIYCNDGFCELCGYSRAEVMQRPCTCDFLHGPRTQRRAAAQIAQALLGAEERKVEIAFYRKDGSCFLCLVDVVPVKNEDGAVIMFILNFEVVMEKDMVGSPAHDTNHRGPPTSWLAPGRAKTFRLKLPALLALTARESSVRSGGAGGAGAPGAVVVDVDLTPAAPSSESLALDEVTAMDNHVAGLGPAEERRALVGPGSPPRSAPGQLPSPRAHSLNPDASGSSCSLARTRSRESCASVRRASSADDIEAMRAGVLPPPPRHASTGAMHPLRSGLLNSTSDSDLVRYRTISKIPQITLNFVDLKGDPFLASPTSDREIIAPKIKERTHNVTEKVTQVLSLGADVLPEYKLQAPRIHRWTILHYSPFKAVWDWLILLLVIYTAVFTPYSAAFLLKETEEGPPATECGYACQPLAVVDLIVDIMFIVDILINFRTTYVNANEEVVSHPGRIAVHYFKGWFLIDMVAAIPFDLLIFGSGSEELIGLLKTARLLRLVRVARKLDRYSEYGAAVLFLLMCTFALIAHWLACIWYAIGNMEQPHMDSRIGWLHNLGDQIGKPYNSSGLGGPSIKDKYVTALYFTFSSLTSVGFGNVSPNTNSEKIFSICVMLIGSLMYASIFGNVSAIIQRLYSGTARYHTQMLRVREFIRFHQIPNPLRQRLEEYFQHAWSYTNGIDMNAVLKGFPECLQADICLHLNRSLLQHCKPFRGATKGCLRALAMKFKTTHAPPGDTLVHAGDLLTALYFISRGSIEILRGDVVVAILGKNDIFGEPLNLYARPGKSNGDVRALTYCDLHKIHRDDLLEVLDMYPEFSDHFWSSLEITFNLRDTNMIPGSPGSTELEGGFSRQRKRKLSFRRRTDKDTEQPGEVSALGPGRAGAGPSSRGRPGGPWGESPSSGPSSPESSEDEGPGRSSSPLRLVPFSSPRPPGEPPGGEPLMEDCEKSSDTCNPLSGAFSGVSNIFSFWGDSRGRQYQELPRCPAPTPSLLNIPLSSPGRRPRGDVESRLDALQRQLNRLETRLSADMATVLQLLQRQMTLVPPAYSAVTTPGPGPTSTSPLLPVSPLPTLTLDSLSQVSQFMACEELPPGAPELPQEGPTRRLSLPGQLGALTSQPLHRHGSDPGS
T13 sequence (P32245 whole entry): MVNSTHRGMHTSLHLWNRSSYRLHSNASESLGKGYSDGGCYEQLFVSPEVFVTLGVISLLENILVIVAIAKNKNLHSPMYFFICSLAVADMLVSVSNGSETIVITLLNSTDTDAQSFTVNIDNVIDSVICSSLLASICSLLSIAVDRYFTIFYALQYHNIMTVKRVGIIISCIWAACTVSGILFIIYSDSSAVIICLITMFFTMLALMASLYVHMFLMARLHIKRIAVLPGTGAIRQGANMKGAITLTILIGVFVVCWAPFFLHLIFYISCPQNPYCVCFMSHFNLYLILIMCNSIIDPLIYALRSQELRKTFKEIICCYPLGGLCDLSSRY
hD2L, sequence (P14416 whole entry): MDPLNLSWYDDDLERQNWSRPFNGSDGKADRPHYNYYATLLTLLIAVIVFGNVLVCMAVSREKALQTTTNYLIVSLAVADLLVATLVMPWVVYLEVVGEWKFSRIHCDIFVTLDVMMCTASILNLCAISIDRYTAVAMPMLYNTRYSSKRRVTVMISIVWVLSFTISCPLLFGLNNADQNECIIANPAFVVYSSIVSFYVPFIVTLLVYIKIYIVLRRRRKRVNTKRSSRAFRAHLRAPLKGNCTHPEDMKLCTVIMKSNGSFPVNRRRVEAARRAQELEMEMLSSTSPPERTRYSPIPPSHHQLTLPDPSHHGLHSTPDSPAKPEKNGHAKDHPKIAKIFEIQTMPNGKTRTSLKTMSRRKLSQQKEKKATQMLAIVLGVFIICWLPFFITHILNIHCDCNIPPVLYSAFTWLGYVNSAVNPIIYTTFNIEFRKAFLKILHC
T15 sequence (P08311 21-255): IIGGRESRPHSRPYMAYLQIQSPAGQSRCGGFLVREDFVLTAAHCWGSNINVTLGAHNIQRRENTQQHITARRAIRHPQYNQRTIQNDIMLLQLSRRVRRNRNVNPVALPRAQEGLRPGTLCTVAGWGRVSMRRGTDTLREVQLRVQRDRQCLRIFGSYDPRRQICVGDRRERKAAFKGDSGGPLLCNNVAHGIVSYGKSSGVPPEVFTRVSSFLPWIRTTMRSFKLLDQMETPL

`O=S(=O)(c1cccc(F)c1)n1ccc2c(N3CCNCC3)nc3ccccc3c21` [FPPQ, 1-[(3-Fluorophenyl)sulfonyl]-4-(piperazin-1-yl)-1H-pyrrolo[3,2-c]quinoline dihydrochloride] showed an inhibition at 10 µM (Melanocortin MC1) of 10%, an IC50 (Muscarinic M1) of 7.89 µM and a Ki (Muscarinic M1) of 1.94 µM. For the same molecule, the inhibition at 0.1 µM (Muscarinic M1; read-out: %inh) was 3%, the inhibition at 1 µM (Muscarinic M1; read-out: %inh) was 13% and the inhibition at 100 µM (Muscarinic M1; read-out: %inh) was 98%. For the same molecule, the inhibition at 10 µM (COX-2) was -13%, the inhibition at 10 µM [1] was 10% and the IC50 (CYP3A4) was 57 µM. For the same molecule, the inhibition at 10 µM (Opiate σ1 (OP1, DOP)) was 7%, the inhibition at 10 µM (Dopamine D1) was 27% and the inhibition at 10 µM (Dopamine D2S) was 46%. The Ki (Potassium Channel [hERG]) was 0.94 µM, the inhibition at 10 µM [2] was -6% and the IC50 (Serotonin 5-HT1B) was 1.17 µM. It also gave a Ki (Serotonin 5-HT1B) of 0.89 µM, an inhibition at 0.01 µM (Serotonin 5-HT1B; read-out: %inh, 10 nM) of 5% and an inhibition at 0.1 µM (Serotonin 5-HT1B; read-out: %inh, 0.1 μM) of 4%. The inhibition at 1 µM (Serotonin 5-HT1B; read-out: %inh, 1 μM) was 47%, the inhibition at 10 µM (Serotonin 5-HT1B; read-out: %inh, 10 μM) was 90% and the inhibition at 10 µM (Serotonin 5-HT1B; [4]) was 92%. It also gave an inhibition at 10 µM (Muscarinic M3) of 43%, an IC50 (CYP2C19) of 10 µM and an IC50 (Serotonin 5-HT1A) of 0.86 µM. It also gave a Ki (Serotonin 5-HT1A) of 0.49 µM, an inhibition at 0.01 µM (Serotonin 5-HT1A; read-out: %inh, 10 nM) of -2% and an inhibition at 0.1 µM (Serotonin 5-HT1A; read-out: %inh, 0.1 μM) of 16%. It also gave an inhibition at 1 µM (Serotonin 5-HT1A; read-out: %inh, 1 μM) of 53%, an inhibition at 10 µM (Serotonin 5-HT1A; read-out: %inh, 10 μM) of 87% and an inhibition at 10 µM (Serotonin 5-HT1A; [4]) of 91%. The inhibition at 0.01 µM ([3]; 10 nM) was -3%, the inhibition at 1 µM ([3]; 1 μM) was 46% and the inhibition at 10 µM [3] was 83%. For the same molecule, the inhibition at 10 µM ([3]; additional batch) was 92%, the Ki (hD2L) was 4.39 µM and the inhibition at 10 µM (Neuropeptide Y Y1) was 37%. The inhibition at 10 µM (Glutamate NMDA, Glycine) was -1%, the inhibition at 10 µM (Melanocortin MC4) was 27% and the inhibition at 10 µM (Vasopressin V1A) was -18%. For the same molecule, the inhibition at 10 µM (Cathepsin G) was -1%, the inhibition at 10 µM (PPARγ) was 28% and the IC50 (Sigma σ1) was 8.33 µM. For the same molecule, the Ki (Sigma σ1) was 3.5 µM, the inhibition at 0.1 µM (Sigma σ1; read-out: %inh) was 7% and the inhibition at 1 µM (Sigma σ1; read-out: %inh) was 18%. The inhibition at 10 µM (Sigma σ1; read-out: %inh) was 51% and the inhibition at 100 µM (Sigma σ1; read-out: %inh) was 89%.
